Measurements taken from patent EP3683219A1, “COMPOUND INHIBITING BUTYRYLCHOLINESTERASE” (Julius-Maximilians-Universität Würzburg, priority 2019, dated 2020).

What was measured:
[1] = test system: Aβ25-35-induced spontaneous alternation deficits; assay: Spontaneous alternation test in the Y-maze, Aβ25-35-injected mice; type: in vivo, male Swiss mice; details: for prevention of the effects of Aβ injection, both behavioral parameters: dose of 1 or 3 mg/kg ip, Y-maze and passive avoidance; for dose active on Aβ25-35-induced spontaneous alternation deficits: ip o.d. day 1 to 7, Y-maze day 8
Method: 2013, 38, pages 1706-1723.
AD-like cognitive dysfunctions were induced in male Swiss mice, 6 weeks old, weighing 31-36 g by intracerebroventricular (icv) injection of the oligomerized Aβ25-35 peptide into the mouse brain on day 1.
Compounds were weighed, dissolved in pure DMSO at a concentration of 1 mg/ml and diluted into final test concentrations with saline. The final percentage of DMSO in saline was 60% for all compounds. Vehicle solution used for control groups was 60% DMSO in saline. Compounds were injected intraperitoneally (ip) from day 1 to 7 and behavioral studies were conducted between day 8 and 10. Spatial working memory was evaluated using a spontaneous alternation test in a Y-maze on day 8. The Y-maze is made of grey polyvinylchloride. Each arm is 40 cm long, 13 cm high, 3 cm wide at the bottom, 10 cm wide at the top, and converging at an equal angle. Each mouse is placed at the end of one arm and allowed to explore the maze freely for 8 min. The sequence of arm entries (including possible returns into the same arm) was checked visually and noted down. If the mouse enters all three arms on consecutive occasion, this is defined as an alternation. Therefore, the total number of arm entries minus two is also the maximum number of alternations. The percentage of alternation was calculated as (actual alternations / maximum alternations) x 100. Parameters for the evaluation of behavior are given as the percentage of alternation (memory index) and a total number of arm entries (exploration index).
Figs. 7a-h show the effect of the compounds on Aβ25-35-induced spontaneous alternation deficits in mice. […] Figs. 7a, c, e, g: spontaneous alternation performance; Figs. 7b, d, f, h: number of arm entries in the Y-maze test performed at day 8.

hBChE [2] = target: T1, hBChE (Homo sapiens, UniProt P06276); assay: biochemical; type: biochemical; details: for plC50 ± SEM (hBChE) / IC50: enzyme activity measured after 20 min incubation; for IC50: read-out: IC50 hBChE; for Selectivity index (IC50 hAChE/IC50 hBChE): hAChE over hBChE
Method: (§1) For evaluation of enzyme inhibition, Ellman's colorimetric assay was conducted as described in Ellman, G. L., Arch. Biochem. Biophys 1958, 74, 443-450 and Ellman, G. L. et al., Biochem. Pharmacol. 1961, 7, 88-95. Therefor, 5,5'-dithiobis-(2-nitrobenzoic acid) (DTNB) solution, respective Cholinesterase (ChE) and inhibitor were incubated together and enzyme activity was measured after 20 min. The long incubation time was needed to allow the carbamate transfer between ChE and inhibitor.
(§2) The carbamate residue was altered systematically by changing residues in the terminal position of carbamate moiety and different flexible alkylene linkers were introduced. […] Nevertheless, it must be noted that IC50 values only serve as a first indicator of inhibitor affinity and selectivity. Due to the chemical reaction of carbamate transfer the enzyme inhibition is strongly time dependent. […]

[3] = test system: Aβ25-35-induced passive avoidance impairments; assay: Step-through passive avoidance test, Aβ25-35-injected mice; type: in vivo, male Swiss mice; details: 0.3-3 mg/kg ip o.d. day 1 to 7; retention day 10
hBChE [4] = target: T1, hBChE; assay: Carbamoylation kinetics on hBChE (time-dependent inhibition, Kc and k3); type: biochemical; details: for k3 [min^-1] hBChE: carbamoylation rate constant; for Kd: carbamoylation, pre-equilibrium constant
From the text: As carbamate based inhibitors (C-X) show a pseudo irreversible manner of binding, the IC50 values must be seen critically because two chemical reactions determine them: Carbamate (C) transfer onto the enzyme (E) and carbamate hydrolysis. So, the Kc values, k3 and k4 rate constants according to below formula were investigated for some representative compounds (c.f. Fig. 3 and Fig. 4). [formula]
The mechanism of enzyme inhibition can be divided into three steps: In a pre-equilibrium, the carbamate based inhibitor C-X is bound to the enzyme E and a complex (EC-X) is formed reversible and can be characterized with Kc. Then the carbamate C is transferred onto the enzyme E and binds covalently to form E-C with the rate constant k3 while carrier scaffold X is released. Then E-C is hydrolyzed and enzyme activity is recovered and the amine C' is released with the rate constant k4, also called decarbamoylation rate.
For the determination of Kc and k3 a similar experimental setup was used compared to the evaluation of IC50 values, whereas enzyme activity was measured at various time points after addition of inhibitor.
A = A0 ⋅e^(−kobs ⋅t) + A∞ [formula]
Plotting the enzyme activity (in %) against the incubation times, lead to nonlinear time-dependent inhibition curves for the respective inhibitor concentrations whereby kobs can be determined with an exponential fit correspondent to equation (I).
Furthermore, a hyperbolic curve is obtained, plotting the rate constant kobs against the inhibitor concentration [I], which is described by equation (II), with the substrate concentration [S] and the Michaelis-Menten constant KM. kobs = (k3 ⋅[I])/(KC ⋅(1+([S])/(KM)) + [I]) [formula]
This equation (II) can be rearranged to the reciprocal of kobs, to get a linear plot: (1)/(kobs) = (KC ⋅(1+([S])/(KM)))/(k3)⋅(1)/([I]) + (1)/(k3) [formula]
Since the substrate butyrylthiocholine iodide is not added directly to the enzyme and the inhibitor, but after the incubation of enzyme with inhibitor, [S] can be set to zero, leading to Michaelis-Menten like equation IV. (1)/(kobs) = (KC)/(k3)⋅(1)/([I]) + (1)/(k3) [formula]
Relating to the linear equation (IV), KC can be established from the slope and carbamoylation rate constant k3 from the y-intercept.
As a chemical reaction is taking place, Kc must be seen as a 'real' measure for quantification of enzyme inhibitor interactions. Due to the high costs in measurements on hBChE only some representative compounds were chosen to evaluate also in kinetic studies based on the results from IC50 measurements (table 3). Table 3. Kinetic values for carbamoylation on hBChE for selected representative compounds

hAChE = hAChE (Homo sapiens, UniProt P22303); assay: Ellman's colorimetric assay, inhibition of hAChE; type: biochemical
Method: as §1, §2

hBChE [5] = target: T1, hBChE; assay: Decarbamoylation from hBChE, dilution experiments (recovery of enzyme activity, k4); type: biochemical; details: decarbamoylation rate, after 1 h incubation and 1:1000 dilution
Method: To further investigate the presence and nature of a peripheral binding site, also the hydrolysis of carbamate and the resulting release of the inhibitor from the enzyme was investigated by measuring the time dependent recovery of enzyme activity. To measure the decarbamoylation rate k4, dilution experiments were performed with hBChE following the procedure described in Sawatzky, E. et al., ChemMedChem 2016, 11, 1540-1550 and in Bartolucci, C. et al., Biochem. J. 2012, 444, 269-277. A high concentration of enzyme and inhibitor where incubated for 1 h. The concentration of inhibitor was chosen, such that > 85% of hBChE was inhibited through carbamate transfer. Then the mixture was diluted with buffer 1:1000 to a concentration at which the enzyme is not further carbamoylated. Due to the hydrolysis and release of the carbamate from the catalytic active serine enzyme activity was recovered slowly. This regeneration of the enzyme was monitored at different time points after the dilution. […] A = (1−e^(k4 ⋅t))⋅(1−A0) + A0 [formula] Table 4. Kinetic values for decarbamoylation from hBChE of selected compounds

T1 sequence (P06276 29-602): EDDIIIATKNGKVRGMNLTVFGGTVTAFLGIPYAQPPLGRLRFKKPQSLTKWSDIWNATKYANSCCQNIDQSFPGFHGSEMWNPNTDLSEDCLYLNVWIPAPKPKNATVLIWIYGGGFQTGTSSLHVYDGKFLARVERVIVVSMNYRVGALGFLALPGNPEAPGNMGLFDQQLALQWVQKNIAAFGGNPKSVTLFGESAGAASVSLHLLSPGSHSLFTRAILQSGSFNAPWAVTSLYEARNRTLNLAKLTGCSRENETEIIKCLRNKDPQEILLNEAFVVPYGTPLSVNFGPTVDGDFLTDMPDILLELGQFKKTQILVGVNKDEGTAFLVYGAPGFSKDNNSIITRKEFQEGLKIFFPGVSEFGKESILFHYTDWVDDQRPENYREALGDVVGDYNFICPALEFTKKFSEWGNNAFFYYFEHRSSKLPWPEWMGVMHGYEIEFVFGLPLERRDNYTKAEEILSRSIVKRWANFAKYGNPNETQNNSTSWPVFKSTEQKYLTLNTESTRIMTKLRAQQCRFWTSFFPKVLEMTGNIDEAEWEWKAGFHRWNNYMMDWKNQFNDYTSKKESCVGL
Chain of hAChE (P22303 32-614): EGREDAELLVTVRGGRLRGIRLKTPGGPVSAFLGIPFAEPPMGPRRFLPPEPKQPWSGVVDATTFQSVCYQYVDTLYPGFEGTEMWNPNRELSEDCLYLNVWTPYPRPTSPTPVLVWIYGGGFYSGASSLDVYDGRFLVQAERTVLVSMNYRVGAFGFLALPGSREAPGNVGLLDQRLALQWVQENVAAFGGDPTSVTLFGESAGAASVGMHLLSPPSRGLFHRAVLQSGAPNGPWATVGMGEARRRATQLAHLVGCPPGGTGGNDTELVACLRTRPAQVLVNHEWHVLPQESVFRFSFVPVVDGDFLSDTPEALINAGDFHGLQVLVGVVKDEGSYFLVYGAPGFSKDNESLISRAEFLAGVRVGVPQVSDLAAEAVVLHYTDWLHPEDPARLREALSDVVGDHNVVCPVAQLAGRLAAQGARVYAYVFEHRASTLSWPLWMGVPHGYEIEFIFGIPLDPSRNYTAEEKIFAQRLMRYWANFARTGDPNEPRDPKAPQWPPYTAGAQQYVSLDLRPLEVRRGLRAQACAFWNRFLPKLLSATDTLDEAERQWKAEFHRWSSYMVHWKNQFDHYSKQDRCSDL

In the case of `CN1c2ccc(OC(=O)NCCCCCCN3CCc4ccccc4C3)cc2CN2CCc3ccccc3C21` (stereo not shown) [Compound 19j], the “prevention of the effects of Aβ injection, both behavioral parameters” value [1] is reported as “fully prevented the effects of Aβ injection”, the “dose active on Aβ25-35-induced spontaneous alternation deficits” value [1] is reported as 1 mg/kg ip and the “plC50 ± SEM (hBChE)” value (hBChE [2]) is reported as 7.57 ± 0.05. The IC50 (hBChE [2]) was 26.7 nM, the “Selectivity index (IC50 hAChE/IC50 hBChE)” value (hBChE [2]) was over 1000 and the “effect on Aβ25-35-induced passive avoidance deficits (step-through latency, retention)” value [3] was “effective at the 3 doses tested”. The “Kc values (hBChE), in words” value (hBChE [4]) was “one-digit nanomolar range”, the “k3 [min^-1] hBChE” value (hBChE [4]) was 0.18 ± 0.02 min⁻¹ and the Kd (hBChE [4]) was 3.6 ± 2.9 nM. It also gave an inhibition at 10 µM (hAChE; 10 µM) of 9% and a k4 (hBChE [5]) of 0.025 ± 0.001 h⁻¹.
For `CN1c2ccc(OC(=O)NCCCCCCN3CCOCC3)cc2CN2CCc3ccccc3C21` (stereo not shown) [Compound 19d], the “prevention of the effects of Aβ injection, both behavioral parameters” value [1] was “fully prevented the effects of Aβ injection”, the “dose active on Aβ25-35-induced spontaneous alternation deficits” value [1] was 0.3 mg/kg ip and the “fold lower activity than heptyl carbamate 7 (IC50 hBChE)” value (hBChE [2]; compared with compound 7) was “approximately 10 fold”. For the same molecule, the “plC50 ± SEM (hBChE)” value (hBChE [2]) was 7.31 ± 0.02, the IC50 (hBChE [2]) was 49.3 nM and the “Selectivity index (IC50 hAChE/IC50 hBChE)” value (hBChE [2]) was over 1000. For the same molecule, the “effect on Aβ25-35-induced passive avoidance deficits (step-through latency, retention)” value [3] was “effective at the 3 doses tested”, the “k3 [min^-1] hBChE” value (hBChE [4]) was 0.16 ± 0.02 min⁻¹ and the Kd (hBChE [4]) was 202 ± 55 nM. For the same molecule, the inhibition at 100 µM (hAChE; 100 µM, read-out: inhibition of hAChE) was 45% and the k4 (hBChE [5]) was 0.042 ± 0.004 h⁻¹.
